According to ChEMBL document CHEMBL1201862, “PubChem BioAssay data set” (2004):
Active and inactive are the calls of the source.

Columns and labels:
[1] = target: T1, Alkaline phosphatase, tissue-nonspecific isozyme (Homo sapiens, UniProt P05186)
T1 sequence (P05186 whole entry): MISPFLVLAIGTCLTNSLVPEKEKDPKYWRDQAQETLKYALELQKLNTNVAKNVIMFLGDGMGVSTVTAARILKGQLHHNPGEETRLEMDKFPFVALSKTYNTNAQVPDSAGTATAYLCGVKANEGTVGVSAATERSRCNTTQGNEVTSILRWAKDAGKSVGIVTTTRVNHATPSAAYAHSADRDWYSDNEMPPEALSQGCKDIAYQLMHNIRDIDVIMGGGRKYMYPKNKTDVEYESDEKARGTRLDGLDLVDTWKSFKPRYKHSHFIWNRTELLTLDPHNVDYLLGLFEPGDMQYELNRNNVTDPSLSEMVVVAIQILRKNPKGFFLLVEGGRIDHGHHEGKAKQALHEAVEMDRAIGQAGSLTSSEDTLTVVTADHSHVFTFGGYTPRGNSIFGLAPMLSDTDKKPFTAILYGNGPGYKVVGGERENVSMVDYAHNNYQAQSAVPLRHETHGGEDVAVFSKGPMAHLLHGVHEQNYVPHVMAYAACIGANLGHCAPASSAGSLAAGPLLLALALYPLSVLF

[2] = alpha-synuclein stem-loop luciferase translation blockers – H4 neuroglioma cells, luminescence, confirmation (AID 1988); format: functional, cell-based
[3] = luciferase reporter signal suppression in cells – H4 neuroglioma cells, luminescence, dose response (AID 1990); format: functional, cell-based
[4] = luciferase reporter signal reduction – luminescence, H4-C neuroglioblastoma cells, dose response (AID 2458); format: functional, cell-based;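 also: H4 neuroglioblastoma cells stably carrying a luciferase reporter gene fusion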
[5] = HEK-293T viability loss, compound-treated – cell-based, uHTS hits, cytotoxicity control for B/T-cell NF-kB inhibitor project, dose response (AID 489019); format: functional;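 also: IC50 reflects cytotoxicity as loss of cell viability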
[6] = alpha-synuclein stem-loop translation blockers – luminescence, H4 neuroglioblastoma cells, dose confirmation, confirmation (AID 2454); format: functional, cell-based;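 also: H4 neuroglioblastoma cells carrying an alpha-synuclein 5'UTR luciferase reporter; potency for inhibition of the luciferase signal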
[7] = cells; format: functional, cell-based
[8] = Luminescence Cell-Based Dose Response HTS to Identify Inhibitors of 5'UTR Stem-Loop Driven Prion Protein mRNA Translation in H4 Neuroglioblastoma Cells. [Related pubchem assays: 1827 (Project Summary), 1813 (Primary HTS)]; format: functional
[9] = tested on: Jurkat; experiment: blockers of NF-kB activation in T cells – Jurkat, luciferase reporter, luminescence, B- and T-cell, dose response (AID 489004); format: functional, cell-based; details: Homo sapiens;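 also: NF-kB luciferase reporter Jurkat cells stimulated with PMA plus ionomycin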
[10] = target: T2, Heat shock 70 kDa protein 1A (Homo sapiens, UniProt P0DMV8); experiment: small molecules displacing fluorescent ligand from Hsp70 – biochemical, fluorescence polarization, primary screen (AID 583)
[11] = target: T2, Heat shock 70 kDa protein 1A; experiment: small-molecule inhibition of Hsp70 – biochemical, TR-FRET (AID 786)
[12] = target: Serine/threonine-protein phosphatase PP1-alpha catalytic subunit (Homo sapiens, UniProt P62136); experiment: inhibition of protein phosphatase 1 activity – biochemical, fluorescence, dose response (AID 2403);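 also: phosphatase turnover of OMFP into fluorescent 3-O-methylfluorescein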
[13] = target: Melanocortin receptor 4 (Homo sapiens, UniProt P32245); experiment: inhibitors of MC4R cAMP signaling – cell-based, TR-FRET, biased antagonists, dose response (AID 602298); format: functional;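 also: antagonist potency against agonist-stimulated cAMP production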
[14] = microbe, parasite or virus in culture; format: functional; details: Mycobacterium tuberculosis
[15] = tested on: Vero; experiment: cells; format: functional; details: Chlorocebus sabaeus
[16] = target: T3, Protein skinhead-1 (Caenorhabditis elegans, UniProt P34707); format: functional
T3 sequence (P34707 whole entry): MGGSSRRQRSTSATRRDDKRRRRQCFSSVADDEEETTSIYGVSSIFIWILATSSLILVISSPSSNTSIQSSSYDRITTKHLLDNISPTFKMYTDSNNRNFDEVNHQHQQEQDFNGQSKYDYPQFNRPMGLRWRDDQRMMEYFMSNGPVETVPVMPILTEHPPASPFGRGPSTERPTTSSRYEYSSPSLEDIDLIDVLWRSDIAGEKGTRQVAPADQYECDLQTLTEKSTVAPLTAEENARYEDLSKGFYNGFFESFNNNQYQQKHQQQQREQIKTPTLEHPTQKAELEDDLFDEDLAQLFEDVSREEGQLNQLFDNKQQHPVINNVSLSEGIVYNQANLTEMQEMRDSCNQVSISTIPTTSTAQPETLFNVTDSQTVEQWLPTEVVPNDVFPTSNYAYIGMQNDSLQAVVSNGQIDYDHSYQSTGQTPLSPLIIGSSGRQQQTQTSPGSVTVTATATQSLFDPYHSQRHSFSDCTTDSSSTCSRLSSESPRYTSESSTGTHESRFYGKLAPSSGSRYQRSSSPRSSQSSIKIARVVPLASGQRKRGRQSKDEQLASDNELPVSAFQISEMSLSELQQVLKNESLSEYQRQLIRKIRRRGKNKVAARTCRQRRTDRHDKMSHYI

[17] = tested on: INS1; experiment: INS-1E survival protection against cytokine death – cell-based, luminescence, retest, dose response (AID 449756); format: functional; details: Rattus norvegicus;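 also: cell death triggered by IL-1 beta plus TNF-alpha plus IFN-gamma mixture; protective hits raise ATP signal compared with cytokine alone wells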
[18] = target: Heat shock protein HSP 90-alpha (Homo sapiens, UniProt P07900); format: functional, organism-based
[19] = cAMP pathway inhibition in counterscreen cell line – TR-FRET cAMP detection, counter-screen for MC4R biased antagonist project, dose response (AID 602305); format: functional, cell-based;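 also: U2OS cells stimulated with forskolin near its EC80 as the cAMP inducer; potency is for inhibition of forskolin-stimulated cAMP signaling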
[20] = target: Serine/threonine-protein phosphatase (Homo sapiens, UniProt Q9BPW0); experiment: Counterscreen for inhibitors of PP1: fluorescence-based biochemical high throughput dose response assay to identify inhibitors of Protein Phosphatase 5 (PP5). [Related pubchem assays: 2034 (Summary (PP5 inhibitors)), 1987 (PP5 inhibitors in singlate), 2235 (PP1 inhibitors in singlate)]
[21] = tested on: Vero; experiment: Vero cell viability after compound exposure – synthesized analogs, set II, cytotoxicity control for West Nile virus antiviral project, SAR follow-up (AID 2402); format: functional; details: Chlorocebus sabaeus
[22] = tested on: Vero; experiment: Vero 76 cell viability after compound exposure – Vero 76 cells, synthesized analogs, cytotoxicity control for West Nile virus antiviral project, SAR follow-up (AID 2414); format: functional; details: Chlorocebus sabaeus
[23] = A Cell Based Assay for the Identification of Probe candidate Compounds with Anti- Venezuelan Equine Encephalitis virus. [Related pubchem assays: 2409, 2419, 1621, 2238, 2405, 2024, 2065, 2402, 2414, 1635, 1650, 2244 ]; format: functional
[24] = tested on: Streptococcus; experiment: Luminescence Microorganism-Based Dose Response Follow up to Identify Compounds Cytotoxic to Streptococcus. [Related pubchem assays: 1677 (Project Summary), 1915, 1914, 1902 (Retest at Dose), 1900 (Counter Screen), 1662 (Primary HTS)]; format: functional, organism-based
[25] = tested on: Streptococcus; experiment: GAS UMAA2166 growth inhibition – luminescence, BacTiterGlo, counter-screen for streptokinase expression inhibitor project, dose response (AID 1915); format: functional, organism-based;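 also: potency for reduction of bacterial viability or growth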
[26] = target: T4, Streptokinase A (Streptococcus pyogenes serotype M1, UniProt P10520); experiment: viability-normalized secreted streptokinase activity reduction – plasminogen activation absorbance, OD405, dose response (AID 1914); format: functional, Streptococcus pyogenes M1 GAS;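 also: secreted streptokinase activity via plasminogen activation per viability signal from cell pellet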
T4 sequence (P10520 whole entry): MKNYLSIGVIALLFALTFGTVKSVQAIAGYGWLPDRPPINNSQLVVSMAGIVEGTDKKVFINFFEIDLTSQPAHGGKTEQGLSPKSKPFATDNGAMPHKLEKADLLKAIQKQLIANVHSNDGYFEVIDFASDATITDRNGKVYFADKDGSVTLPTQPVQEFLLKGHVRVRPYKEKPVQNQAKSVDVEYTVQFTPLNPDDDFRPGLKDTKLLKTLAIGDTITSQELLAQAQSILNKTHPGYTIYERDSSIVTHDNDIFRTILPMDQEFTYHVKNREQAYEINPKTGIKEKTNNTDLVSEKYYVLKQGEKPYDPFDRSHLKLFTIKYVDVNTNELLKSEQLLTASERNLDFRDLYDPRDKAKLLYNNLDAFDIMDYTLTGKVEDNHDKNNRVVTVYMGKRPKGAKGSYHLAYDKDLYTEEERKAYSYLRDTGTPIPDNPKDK

[27] = tested on: Streptococcus sp. 'group A'; experiment: Streptococcus pyogenes SK(-)GAS viability under kanamycin – luminescence, BacTiterGlo, confirmation, counter-screen for streptokinase expression inhibitor project, dose response (AID 1900); format: functional, organism-based
[28] = target: T5, Oxysterols receptor LXR-beta (Homo sapiens, UniProt P55055); format: functional, cell-based;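 also: agonist activity at LXR measured by a cell-based luminescence readout across a dose range, run as a counterscreen for daf-12 agonists; HEK293 cells with Gal4-LXR fusion and GAL4-driven luciferase reporter; potency for activation of Gal4-LXR reporter so compounds are agonists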
T5 sequence (P55055 whole entry): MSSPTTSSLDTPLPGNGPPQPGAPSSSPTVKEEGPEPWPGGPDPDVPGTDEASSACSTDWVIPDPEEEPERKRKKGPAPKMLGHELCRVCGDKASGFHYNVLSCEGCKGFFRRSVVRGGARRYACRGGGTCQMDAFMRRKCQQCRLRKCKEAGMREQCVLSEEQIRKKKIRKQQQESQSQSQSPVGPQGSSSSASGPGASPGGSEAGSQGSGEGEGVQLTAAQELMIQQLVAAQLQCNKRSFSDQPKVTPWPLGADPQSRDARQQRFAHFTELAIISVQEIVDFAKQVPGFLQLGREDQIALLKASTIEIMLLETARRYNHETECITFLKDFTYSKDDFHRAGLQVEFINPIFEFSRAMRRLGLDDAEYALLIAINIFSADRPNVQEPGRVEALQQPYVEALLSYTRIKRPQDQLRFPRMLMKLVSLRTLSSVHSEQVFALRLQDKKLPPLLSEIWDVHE

[29] = tested on: HT-1080; experiment: HT1080 cell viability loss – fluorescence readout (AID 620); format: functional, cell-based; details: Homo sapiens
[30] = cells; format: functional, cell-based; remark: listed apart in the source
[31] = target: T6, Luciferin 4-monooxygenase (Photinus pyralis, UniProt P08659); experiment: inhibition of purified Photinus pyralis luciferase – biochemical, luminescence, dose response (AID 1891)
[32] = target: T7, Trace amine-associated receptor 1 (Homo sapiens, UniProt Q96RJ0); experiment: Fluorescence-based cell-based high throughput dose response assay to identify agonists of the human trace amine associated receptor 1 (TAAR1).; format: functional
T7 sequence (Q96RJ0 whole entry): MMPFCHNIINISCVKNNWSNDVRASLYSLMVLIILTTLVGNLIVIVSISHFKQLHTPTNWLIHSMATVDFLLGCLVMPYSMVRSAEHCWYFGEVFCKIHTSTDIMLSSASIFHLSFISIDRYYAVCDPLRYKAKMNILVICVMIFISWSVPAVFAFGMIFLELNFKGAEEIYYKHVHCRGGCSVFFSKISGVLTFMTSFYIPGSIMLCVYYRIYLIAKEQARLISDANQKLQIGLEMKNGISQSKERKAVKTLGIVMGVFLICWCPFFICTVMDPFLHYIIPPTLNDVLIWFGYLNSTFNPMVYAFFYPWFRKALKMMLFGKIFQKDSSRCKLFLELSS

[33] = target: T6, Luciferin 4-monooxygenase; experiment: Counter Screen for Luciferase-based Assay Positives. [Related pubchem assays: 620, 618, 411 ]
[34] = target: T7, Trace amine-associated receptor 1; experiment: Counterscreen for agonists of the human trace amine associated receptor 1 (hTAAR1): Fluorescence-based cell-based high throughput dose response assay to identify hTAAR1 agonist that also desensitize TAAR1 receptor response.; format: functional
[35] = target: T8, Protein Rev (Human immunodeficiency virus type 1 group M subtype B (isolate WMJ22)(HIV-1), UniProt P05866); experiment: inhibitors of Rev protein–RRE RNA complex – biochemical, protein-RNA interaction, dose response (AID 842); parameters: species or system Human immunodeficiency virus 1
T8 sequence (P05866 whole entry): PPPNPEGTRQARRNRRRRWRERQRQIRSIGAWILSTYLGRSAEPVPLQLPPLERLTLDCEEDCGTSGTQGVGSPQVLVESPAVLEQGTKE

[36] = Luminescence Cell-Based Dose Confirmation HTS to Identify Inhibitors of Platelet Dense Granule Release. [Related pubchem assays: 1663 (Primary HTS), 1678 (Summary of Project)]; format: functional
[37] = cells; format: functional, cell-based; remark: listed apart in the source

T6 sequence (P08659 whole entry): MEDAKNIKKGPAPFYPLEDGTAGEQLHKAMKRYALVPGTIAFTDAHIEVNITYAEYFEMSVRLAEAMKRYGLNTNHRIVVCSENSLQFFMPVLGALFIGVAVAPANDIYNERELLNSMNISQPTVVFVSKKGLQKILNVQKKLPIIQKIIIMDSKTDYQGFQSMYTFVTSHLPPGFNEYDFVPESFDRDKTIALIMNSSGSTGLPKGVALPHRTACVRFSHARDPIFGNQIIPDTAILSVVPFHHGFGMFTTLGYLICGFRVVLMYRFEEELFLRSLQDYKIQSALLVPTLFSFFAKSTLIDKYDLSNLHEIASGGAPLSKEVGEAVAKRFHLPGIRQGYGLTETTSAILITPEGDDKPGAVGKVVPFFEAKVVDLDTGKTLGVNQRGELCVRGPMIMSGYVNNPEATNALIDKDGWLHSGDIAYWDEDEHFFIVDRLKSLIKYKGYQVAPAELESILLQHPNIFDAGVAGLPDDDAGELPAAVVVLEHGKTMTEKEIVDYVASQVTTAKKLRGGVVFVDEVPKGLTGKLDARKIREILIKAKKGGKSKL
T2 sequence (P0DMV8 whole entry): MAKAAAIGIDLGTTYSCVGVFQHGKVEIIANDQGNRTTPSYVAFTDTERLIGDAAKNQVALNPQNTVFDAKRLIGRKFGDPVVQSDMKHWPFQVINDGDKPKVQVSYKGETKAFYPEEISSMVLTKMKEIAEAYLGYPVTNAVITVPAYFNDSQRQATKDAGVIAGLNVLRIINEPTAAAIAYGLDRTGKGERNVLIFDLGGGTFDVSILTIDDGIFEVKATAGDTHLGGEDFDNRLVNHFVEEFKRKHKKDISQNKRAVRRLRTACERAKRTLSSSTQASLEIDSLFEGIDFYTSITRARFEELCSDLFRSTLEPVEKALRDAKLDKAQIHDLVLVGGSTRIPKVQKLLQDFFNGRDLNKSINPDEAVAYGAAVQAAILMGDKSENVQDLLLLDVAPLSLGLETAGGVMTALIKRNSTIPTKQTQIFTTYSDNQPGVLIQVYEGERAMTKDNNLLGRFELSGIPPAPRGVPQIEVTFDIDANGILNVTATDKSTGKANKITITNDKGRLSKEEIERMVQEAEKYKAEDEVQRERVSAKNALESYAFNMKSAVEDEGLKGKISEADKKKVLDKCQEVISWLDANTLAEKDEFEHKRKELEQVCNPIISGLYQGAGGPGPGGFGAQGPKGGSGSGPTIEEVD
Sequence of Melanocortin receptor 4 (P32245 whole entry): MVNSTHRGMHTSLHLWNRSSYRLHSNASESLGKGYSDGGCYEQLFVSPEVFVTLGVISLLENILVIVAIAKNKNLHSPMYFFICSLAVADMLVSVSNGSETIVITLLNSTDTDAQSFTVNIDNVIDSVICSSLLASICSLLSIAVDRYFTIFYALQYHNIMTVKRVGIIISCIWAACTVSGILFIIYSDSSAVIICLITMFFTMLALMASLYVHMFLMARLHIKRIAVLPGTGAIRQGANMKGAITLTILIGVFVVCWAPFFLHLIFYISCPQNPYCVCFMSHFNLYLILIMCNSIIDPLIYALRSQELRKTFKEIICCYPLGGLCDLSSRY
Sequence of Serine/threonine-protein phosphatase PP1-alpha catalytic subunit (P62136 whole entry): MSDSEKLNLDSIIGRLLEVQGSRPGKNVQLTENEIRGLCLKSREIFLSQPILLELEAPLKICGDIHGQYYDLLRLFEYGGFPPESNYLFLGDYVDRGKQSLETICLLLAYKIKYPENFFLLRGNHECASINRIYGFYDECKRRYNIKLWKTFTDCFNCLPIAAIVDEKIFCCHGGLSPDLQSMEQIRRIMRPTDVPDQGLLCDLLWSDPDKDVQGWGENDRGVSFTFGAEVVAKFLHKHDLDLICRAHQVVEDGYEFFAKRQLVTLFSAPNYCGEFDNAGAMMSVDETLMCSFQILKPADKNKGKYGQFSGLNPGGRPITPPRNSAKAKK
Sequence of Serine/threonine-protein phosphatase (Q9BPW0 whole entry): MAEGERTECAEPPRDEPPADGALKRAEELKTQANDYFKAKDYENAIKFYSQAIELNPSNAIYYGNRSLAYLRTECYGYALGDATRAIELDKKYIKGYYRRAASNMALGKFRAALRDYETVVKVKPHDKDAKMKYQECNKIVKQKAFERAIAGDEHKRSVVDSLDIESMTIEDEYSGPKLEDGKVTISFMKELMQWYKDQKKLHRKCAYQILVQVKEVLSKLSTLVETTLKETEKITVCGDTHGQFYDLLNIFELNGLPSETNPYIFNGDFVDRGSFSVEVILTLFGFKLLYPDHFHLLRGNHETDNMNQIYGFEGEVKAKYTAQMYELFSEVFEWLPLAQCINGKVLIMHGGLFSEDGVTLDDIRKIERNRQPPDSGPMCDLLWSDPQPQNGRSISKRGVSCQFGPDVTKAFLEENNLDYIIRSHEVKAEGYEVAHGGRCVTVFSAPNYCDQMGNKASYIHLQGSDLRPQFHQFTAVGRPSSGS

CCOC(=O)CSc1nc2ccccc2c(=O)n1CCC(=O)NCCc1ccc(OC)c(OC)c1
EC50 [1]: > 100 µM (not active)

CC1CCc2c(sc(NC(=O)CSc3nc[nH]n3)c2C#N)C1 (configuration not stated)
EC50 [2]: < 0.1 µM (active)
EC50 [3]: < 0.1 µM (active)
EC50 [4]: 0.232 µM (active)
IC50 [5]: > 80 µM (inactive)
EC50 [6]: 0.323 µM (active)
EC50 [7]: 0.337 µM (active)
EC50 [8]: < 0.1 µM (active)
IC50 [9]: 0.52 µM (active)

Cc1ccnc2c(N3C(=O)C4C5C=CC(C5)C4(C)C3=O)cccc12 (configuration not stated)
IC50 [10]: > 100 µM (not active)
IC50 [11]: > 100 µM (not active)

CC1=NOC(=O)/C1=C/c1ccc(-c2ccc(Cl)cc2)o1
IC50 [12]: 6.86 µM (active)
IC50 [13]: 8.05 µM (active)
CC50 [14]: > 40 µM (active)
CC50 [15]: > 25 µM (active)
IC50 [16]: 62.2 µM (inactive)
AC50 [17]: 6.76 µM (active)
AC50 [18]: 2.08 µM (active)
IC50 [19]: 13.4 µM (inactive)
IC50 [20]: > 67 µM (not active)

C=CCN(C(=O)c1ccccc1Cl)c1nc(-c2ccc(OC)cc2)cs1
CC50 [21]: 11.1 µM (active)
CC50 [22]: 24 µM (active)
IC50 [23]: 50.1 µM (active)

O=[N+]([O-])c1ccc(Nc2nc(NCCO)nc(N3CCCC3)n2)cc1
EC50 [24]: 54.3 µM (active)
EC50 [25]: > 150 µM (not active)
EC50 [26]: 7.48 µM (active)
EC50 [27]: 6.68 µM (active)

Nc1nc(Nc2ccc(Cl)cc2)nc2ccccc12
EC50 [28]: > 67.5 µM (inactive)
EC50 [29]: > 50 µM (not active)
EC50 [30]: > 29.9 µM (inactive)
EC50 [31]: 0.347 µM (active)
EC50 [32]: 19.2 µM (inactive)
EC50 [33]: 1.8 µM (active)
IC50 [34]: 9.98 µM (active)
IC50 [35]: > 79.4 µM (not active)
EC50 [36]: 2.37 µM (active)
IC50 [37]: > 29.9 µM (inactive)
